The results in this text go back to US20250122225A1, “MASP-2 INHIBITORS AND METHODS OF USE” (Omeros Corporation, priority 2023, published 2025).

Each structure is given as a SMILES string. pKi: −log10 of the molar value. Structures can show the parent of a compound that is named as a salt. A value given as a limit tells only on which side of the number the result lay.

One assay has as its target T1, MASP-2 (CCP1-CCP2-SP) (Homo sapiens, UniProt O00187).
T1 construct: 15 μL of Enzyme MASP-2 (CCP1-CCP2-SP) in Assay Buffer
The assay is described as follows: Enzymatic assay for MASP-2 inhibitory activity (fluorogenic substrate). Format: biochemical. How it is done: The MASP-2 assay utilizes a fluorogenic substrate, based on the cleavage site for its natural substrate C2. The assay was run at room temperature in an assay buffer containing 20 mM HEPES, pH 7.4, 140 mM NaCl and 0.1% Tween 20. Assay parameters were adjusted such that the assay was linear with respect to time, enzyme, and substrate concentrations. Under the optimized assays conditions, IC50 values were equivalent to Ki values, except in the few cases of “tight binding” inhibitors. Cases of “tight binding” or possible “slow binding” inhibitors were handled by the methods described in Copeland R. A. (2013) Evaluation of Enzyme Inhibitors in Drug Discovery. 2nd Ed., John Wiley and Sons, Inc., Chapters 5-7.
The MASP-2 assay protocol was carried out as follows. Test compounds were serially diluted in DMSO and then 100 nL of each dilution was transferred to the assay plate(s). 10 μL of Assay Buffer was added, followed by 15 μL of Enzyme MASP-2 (CCP1-CCP2-SP) in Assay Buffer. 15 μL of Substrate in Assay Buffer was then added and the mixture was mixed to start the reaction. After 20 min at room temperature, 15 μL of a stop solution (0.1 M acetic acid) was added, the sample was mixed, and the plates were read on a SpectraMax i3x Microplate Reader with the data exported as an Excel file. Each assay plate included a “no inhibitor” (DMSO only) control, a “no enzyme” control, and a reference inhibitor control. % Activity values=100*(average test comp. fluorescence−average “no enzyme” fluorescence)/(average “DMSO only” fluorescence−average “no enzyme” fluorescence). IC50 and Ki replicate values were very reproducible, with values well within ±2-fold.

The next assay deals with T2, human α-thrombin (Homo sapiens, UniProt P00734).
T2 construct: enzyme (human α-thrombin (BioPharm® Lab.)) in assay buffer; purchased BioPharm® Lab
Description: Enzymatic assay for thrombin (fluorogenic peptide substrate Boc-VPR-AMC). Format: biochemical. The procedure: The thrombin assay utilizes a fluorogenic peptide substrate (Boc-VPR-AMC (R&D Systems) and was run at room temperature in an assay buffer containing 20 mM Hepes, pH 7.4, 140 mM NaCl and 0.1% Tween 20. Assay parameters were adjusted such that the assay was linear with respect to time, enzyme, and substrate concentrations. Under these optimized assays conditions, IC50 values were equivalent to Ki values, except in a few cases of “tight binding” inhibitors. Cases of “tight binding” or possible “slow binding” inhibitors were handled by the methods described in Copeland R. A. (2013) Evaluation of Enzyme Inhibitors in Drug Discovery. 2nd Ed. John Wiley and Sons, Inc., Chapters 5-7.
The thrombin assay protocol was carried out as follows. Test compounds were serially diluted in DMSO and then 100 nL of each dilution was transferred to the assay plate(s). 10 μL of Assay Buffer was added, followed by 15 μL of enzyme (human α-thrombin (BioPharm® Lab.)) in assay buffer. 15 μL of substrate in assay buffer was then added and the sample mixed to start the reaction. After 20 min at room temperature, 15 μL of a stop solution (0.1 M acetic acid) was added, the sample was mixed, and the plates were read on a SpectraMax® i3x Microplate Reader with the data exported as Excel files. Each assay plate included a “no inhibitor” (DMSO only) control, a “no enzyme” control, and a reference inhibitor control. % Activity values=100*(ave. test comp. fluorescence−ave. “no enz” fluorescence)/(ave. “DMSO only” fluorescence−ave. “no enz” fluorescence). IC50 and Ki values were very reproducible, with values falling well within ±2-fold.

T1 sequence (O00187 445-686 limits assumed): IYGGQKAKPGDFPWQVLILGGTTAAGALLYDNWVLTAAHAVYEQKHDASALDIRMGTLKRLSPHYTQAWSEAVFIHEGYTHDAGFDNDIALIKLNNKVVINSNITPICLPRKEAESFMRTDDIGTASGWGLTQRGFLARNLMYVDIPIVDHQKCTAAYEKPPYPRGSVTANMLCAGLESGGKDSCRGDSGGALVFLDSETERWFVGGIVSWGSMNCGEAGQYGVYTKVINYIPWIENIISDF
T1 sequence (O00187 287-444 partner limits assumed): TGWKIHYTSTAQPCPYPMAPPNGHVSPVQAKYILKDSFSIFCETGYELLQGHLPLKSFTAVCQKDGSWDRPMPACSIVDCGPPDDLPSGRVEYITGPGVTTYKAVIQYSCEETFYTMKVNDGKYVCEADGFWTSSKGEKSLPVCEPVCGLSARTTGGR

In general, pKi refers to the Ki on a negative log10 scale, so that one unit is a factor of ten. A higher pKi goes with a low Ki. With `Cc1cccc(CNc2nc(Cl)c3n(c2=O)[C@H](C(=O)NCc2cc4cnccc4[nH]2)CC3)c1F` [Compound 13, (S)-N-((1H-pyrrolo[3,2-c]pyridin-2-yl)methyl)-1-chloro-3-((2-fluoro-3-methylbenzyl)amino)-4-oxo-4,6,7,8-tetrahydropyrrolo[1,2-a]pyrazine-6-carboxamide], the pKi at MASP-2 (CCP1-CCP2-SP) was > 6.30; at human α-thrombin, 4.60 to 5.00.
`Cc1ccccc1[C@@H](C)Nc1ncc2n(c1=O)[C@H](C(=O)NCc1ccc(N)nc1C)CC2` [Compound 82, (S)-N-((6-amino-2-methylpyridin-3-yl)methyl)-4-oxo-3-(((R)-1-(o-tolyl)ethyl)amino)-4,6,7,8-tetrahydropyrrolo[1,2-a]pyrazine-6-carboxamide]: the pKi on MASP-2 (CCP1-CCP2-SP) and on human α-thrombin was > 6.30 each time.
With `Cc1cc(C)cc(CNc2ncc3n(c2=O)[C@H](C(=O)NCc2cc4cnc(C)cc4[nH]2)CC32CC2)c1` [Compound 124, (S)-3′-((3,5-dimethylbenzyl)amino)-N-((6-methyl-1H-pyrrolo[3,2-c]pyridin-2-yl)methyl)-4′-oxo-6′,7′-dihydro-4′H-spiro[cyclopropane-1,8′-pyrrolo[1,2-a]pyrazine]-6′-carboxamide trifluoroacetate], the pKi on MASP-2 (CCP1-CCP2-SP) is > 6.30; at human α-thrombin, < 4.60.
In the same order, the values of `Cc1nc(N)ccc1CNC(=O)[C@@H]1CCc2c(Cl)nc(NCc3cccc(C(F)F)c3)c(=O)n21` [Compound 16, (S)-N-((6-amino-2-methylpyridin-3-yl)methyl)-1-chloro-3-((3-(difluoromethyl)benzyl)amino)-4-oxo-4,6,7,8-tetrahydropyrrolo[1,2-a]pyrazine-6-carboxamide] are > 6.30 and 5.00 to 5.60.
In the same order, the values of `O=C(NCc1cc2c(s1)CNC2)[C@@H]1CCc2cnc(N[C@@H](c3ccccc3)C3CCCC3)c(=O)n21` [Compound 279, (S)-3-(((R)-cyclopentyl(phenyl)methyl)amino)-N-((5,6-dihydro-4H-thieno[2,3-c]pyrrol-2-yl)methyl)-4-oxo-4,6,7,8-tetrahydropyrrolo[1,2-a]pyrazine-6-carboxamide] are > 6.30 and > 6.30.
In the same order, the values of `Cc1ccc(C)c(CNc2nc(Cl)c3n(c2=O)[C@H](C(=O)NCc2ccc(N)nc2C)CC3)c1` [Compound 10, (S)-N-((6-amino-2-methylpyridin-3-yl)methyl)-1-chloro-3-((2,5-dimethylbenzyl)amino)-4-oxo-4,6,7,8-tetrahydropyrrolo[1,2-a]pyrazine-6-carboxamide] are > 6.30 and 5.60 to 6.30.
As for `Cc1cccc([C@@H](C)Nc2ncc3n(c2=O)[C@H](C(=O)NCc2cc4cnccc4[nH]2)CC3)c1` [Compound 73, (S)-N-((1H-pyrrolo[3,2-c]pyridin-2-yl)methyl)-4-oxo-3-(((R)-1-(m-tolyl)ethyl)amino)-4,6,7,8-tetrahydropyrrolo[1,2-a]pyrazine-6-carboxamide], the results for the negative logarithm of the Ki (pKi) on MASP-2 (CCP1-CCP2-SP) and on human α-thrombin were > 6.30 and 4.60 to 5.00, respectively.
In the same order, the values of `Cc1cc(F)cc(CNc2nc(C#N)c3n(c2=O)[C@H](C(=O)NCc2ccc(N)nc2C)CC3)c1` [Compound 222, (S)—N-((6-amino-2-methylpyridin-3-yl)methyl)-1-cyano-3-((3-fluoro-5-methylbenzyl)amino)-4-oxo-4,6,7,8-tetrahydropyrrolo[1,2-a]pyrazine-6-carboxamide trifluoroacetate] are > 6.30 and 5.00 to 5.60.
In the case of `Cc1cc(F)cc(CNc2ncc3n(c2=O)[C@H](C(=O)NCc2cccc(Cl)c2)CC3)c1` [Compound 180], the values for the pKi on MASP-2 (CCP1-CCP2-SP) and at human α-thrombin were 5.60 to 6.30 and 5.00 to 5.60, respectively.
In the same order, the values of `O=C(NCc1cc2c(s1)CNC2)[C@@H]1CCc2cnc(N[C@@H](c3ccccc3)C3CCC3)c(=O)n21` [Compound 256] are > 6.30 and > 6.30.
The corresponding values for `N=C(N)c1ccc(CNC(=O)[C@@H]2CCc3c(Cl)nc(NCCc4ccccc4)c(=O)n32)cc1` [Compound 250] are 5.60 to 6.30 and 5.00 to 5.60.
For `Cc1cc(F)cc(CNc2nc(Cl)c3n(c2=O)[C@H](C(=O)NCc2cnc4ccccn24)CC3)c1` [Compound 165, (S)-1-chloro-3-((3-fluoro-5-methylbenzyl)amino)-N-(imidazo[1,2-a]pyridin-3-ylmethyl)-4-oxo-4,6,7,8-tetrahydropyrrolo[1,2-a]pyrazine-6-carboxamide trifluoroacetate], the pKi at MASP-2 (CCP1-CCP2-SP) was 4.60 to 5.00; on human α-thrombin, < 4.60.
The corresponding values for `Cc1cc(C)cc(CNc2ncc3n(c2=O)[C@H](C(=O)NCc2cc4c(s2)CNC4)CC3)c1` [Compound 96, (S)-N-((5,6-dihydro-4H-thieno[2,3-c]pyrrol-2-yl)methyl)-3-((3,5-dimethylbenzyl)amino)-4-oxo-4,6,7,8-tetrahydropyrrolo[1,2-a]pyrazine-6-carboxamide] are > 6.30 and > 6.30.
`Cc1ccccc1CNc1ncc2n(c1=O)[C@H](C(=O)NCc1cc3cnccc3[nH]1)CC2` [Compound 53, (S)-N-((1H-pyrrolo[3,2-c]pyridin-2-yl)methyl)-3-((2-methylbenzyl)amino)-4-oxo-4,6,7,8-tetrahydropyrrolo[1,2-a]pyrazine-6-carboxamide]: the pKi at MASP-2 (CCP1-CCP2-SP) is > 6.30; at human α-thrombin it was 5.60 to 6.30.
The corresponding values for `Cc1cc(F)cc(CNc2ncc3n(c2=O)[C@H](C(=O)NCc2c(C)cc(CN)cc2C)CC3)c1` [Compound 206, trifluoroacetate] are 5.60 to 6.30 and 4.60 to 5.00.
The corresponding values for `Cc1ccccc1CNc1ncc2n(c1=O)[C@H](C(=O)NCc1cc3c(s1)CNC3)CC2` [Compound 286, trifluoroacetate] are > 6.30 and 5.60 to 6.30.
In the same order, the values of `NCc1ccc(CNC(=O)[C@@H]2CCc3c(Cl)nc(NCc4ccc5c(c4)CCCC5)c(=O)n32)s1` [Compound 225, (S)—N-((5-(aminomethyl)thiophen-2-yl)methyl)-1-chloro-4-oxo-3-(((5,6,7,8-tetrahydronaphthalen-2-yl)methyl)amino)-4,6,7,8-tetrahydropyrrolo[1,2-a]pyrazine-6-carboxamide trifluoroacetate] are > 6.30 and < 4.60.
As to `Cc1cc(F)cc(CNc2nc(-c3cnn(C(F)F)c3)c3n(c2=O)[C@H](C(=O)NCc2ccc(N)nc2)CC3)c1` [Compound 216, (S)-N-((6-aminopyridin-3-yl)methyl)-1-(1-(difluoromethyl)-1H-pyrazol-4-yl)-3-((3-fluoro-5-methylbenzyl)amino)-4-oxo-4,6,7,8-tetrahydropyrrolo[1,2-a]pyrazine-6-carboxamide trifluoroacetate], the pKi was > 6.30 on MASP-2 (CCP1-CCP2-SP) and < 4.60 on human α-thrombin.
The corresponding values for `Cc1ccccc1CNc1ncc2n(c1=O)[C@H](C(=O)N[C@H](C)c1ccc(N)nc1)CC2` [Compound 202, (S)-N-((R)-1-(6-aminopyridin-3-yl)ethyl)-3-((2-methylbenzyl)amino)-4-oxo-4,6,7,8-tetrahydropyrrolo[1,2-a]pyrazine-6-carboxamide] are > 6.30 and 4.60 to 5.00.
In the case of `COc1ccnc(CNC(=O)[C@@H]2CCc3cnc(NCc4cc(C)cc(F)c4)c(=O)n32)c1F` [Compound 190, (S)-N-((3-fluoro-4-methoxypyridin-2-yl)methyl)-3-((3-fluoro-5-methylbenzyl)amino)-4-oxo-4,6,7,8-tetrahydropyrrolo[1,2-a]pyrazine-6-carboxamide trifluoroacetate], the pKi at human α-thrombin was 5.00 to 5.60.
